Structures can show the parent of a compound that is named as a salt.
Columns and labels:
[1] = Body weight of DIO mice, 4-hydroxyisoleucine and metformin alone and in combination (Example 6); format: in vivo, C57BU6 mice; details: DIO mice, 21 days
Description: C57BU6 mice were received at 7-8 weeks of age and fed a high fat diet (60% of calories from fat) for 8 weeks. Fasted glycemia was checked and animals with readings between 200 and 220 mg/dL were included in the study. The animals were randomized based on their body weights and glycemia values into control and treatment groups (n=8). […] The control group received vehicle (water) alone. The animals were treated for 21 days. Body weight of the mice was measured on the first day of treatment and on days 3, 7, 10, 14, 17, and 21. All data are expressed as mean±SEM.

[2] = cited from earlier work
[3] = Body weight gain in C57BU6 mice shifted to a high fat diet, analogs and isomers, 3 days (Example 9); format: in vivo; details: 100 mg/kg twice daily oral gavage; for body weight gain induced by the high fat diet: C57BU6 mice on high fat diet
Description: C57BU6 mice were received at 6-7 weeks of age and fed a standard commercial chow for 1 week (acclimation period). The animals were randomized based on their body weight values, into control and treatment groups (n=6). Then, animals were shifted to a high fat diet (60% of calories from fat) and treated twice daily by oral gavage with 4-hydroxyisoleucine (4-OH, compound 14a) or different analogs and isomers of 4-OH at the dose of 100 mg per kg of body weight for 3 days. The control group (Control HFD) received vehicle (water) alone and a group was kept under standard chow (Control Lean). Body weight of the mice was recorded daily. Two different experiments were run and the effect on body weight gain of selected analogs and isomers according to the invention is presented in FIG. 22A (Experiment 1) and FIG. 22B (Experiment 2).

[4] = Body weight gain and epididymal fat pad in the DIO mouse model, Compound 13e (Example 8); format: in vivo, C57BU6 mice; details: 25 or 50 mg/kg twice daily oral gavage, 21 days
Description: The objective of this study was to determine the effect of one analog according to the invention, namely Compound 13e, on body weight gain in the Diet-Induced Obesity (DIO) mouse model.
C57BU6 mice were received at 7-8 weeks of age and fed a high fat diet (60% of calories from fat) for 8 weeks. Fasted glycemia and body weight values were used to randomize the mice into control and treatment groups (n=8). The average basal glycemia was between 213 and 215 mg/dL for all groups. The animals were treated twice daily by oral gavage with Compound 13e (25 or 50 mg per kg of body weight), and the control group received vehicle (200 mM bicarbonate buffer/0.1% Tween-20™, pH =9) alone. The animals were treated for 21 days. Body weight of the mice was measured on a frequent basis during the treatment. At the end of the study, the epididymal fat pads were isolated and weighed. Data are expressed as mean±SEM of body weight and mean±SEM of fat pad weight.

[5] = Weight gain and epididymal fat of DIO-C57Bl/6 mice, 4-hydroxyisoleucine and Exendin-4 alone or in combination (Example 5); format: in vivo, C57BI/6 mice; details: s.c., 21 days
Description: (§1) Glycemic response was monitored by an Oral Glucose Tolerance Test (OGTT) performed on days 0, 7, 14, and 21 of treatment.
(§2) A total of 56 animals were used in the study. The animals were distributed into 7 groups (5 treated, 1 normal diet control, and 1 high fat diet control group). Each group was composed of 8 animals. […] For the three weeks of treatment, the test agents were dissolved in sterile saline for injection (USP). 4-Hydroxyisoleucine was kept at 4° C. (administration to groups 3, 4, and 7) while a frozen aliquot of Exendin-4 was thawed each dosing day for administration to groups 5, 6, and 7. Control animals received sterile saline, twice daily (groups 1 and 2). […] Animals from groups 5 and 6 received sterile saline as the AM treatment, while the PM treatment consisted of 0.05 and 0.01 mg/kg of Exendin-4, respectively. For Group 7, the AM treatment consisted of 50 mg/kg 4-OH only, while the PM treatment consisted of 0.01 mg/kg of Exendin-4+50 mg/kg of 4-OH. All groups were treated by subcutaneous injection.

[6] = Oral Glucose Tolerance Test (OGTT) in DIO mice, 4-hydroxyisoleucine and Exendin-4 alone or in combination (Example 5); format: in vivo, C57BI/6 mice; details: single agent, 4-OH 50 mg/kg or Exendin-4 0.01 mg/kg, after 7, 14 and 21 days of treatment
Description: as §1, §2
On days 0, 7, 14, and 21, animals fasted for approximately 5 hours were challenged with an Oral Glucose Tolerance Test (OGTT) at 5 hours post-AM test agent administration. Whole blood glucose levels were monitored using a hand-held glucometer prior to OGTT and for up to 2 hours post-glucose challenge.

[7] = Body weight of DIO mice, 4-hydroxyisoleucine and Rimonabant alone and in combination (Example 7); format: in vivo, C57BU6 mice; details: oral
Description: C57BU6 mice were received at 7-8 weeks of age and fed a high fat diet (60% of calories from fat) for 8 weeks. Seven days prior to treatment, animals were randomized based on their body weight and fasted glycemia values into control and treated groups (n=8). The animals were treated by oral gavage twice daily with 4-OH (50 mg/kg of body weight; group 2), once daily in the afternoon with Rimonabant (0.1 mg/kg; group 3), and a combination of the two treatments (4-OH 50 mg/kg twice daily +Rimonabant 0.1 mg/kg once daily; group 4). The control group (group 1) received vehicle alone twice daily. After 3 weeks of treatment (day 22), the doses were increased as follows: 4-OH 100 mg/kg twice daily (group 2), Rimonabant 1 mg/kg once daily (group 3), and the combination (4-OH 100 mg/kg twice daily+Rimonabant 1 mg/kg once daily; group 4). The animals were treated for 1 week with these higher doses. Body weight of the mice was recorded every day for all groups from Day 6 to Day 28.

CN(C)C(=N)N=C(N)N [metformin]
body weight as compared to vehicle-treated mice ([1]; 100 mg/kg twice daily oral, only 4-OH significant (p<0.01 4-OH, p=0.27 metformin)): reduction of their body weight
body weight compared to control DIO mice, given alone ([1]; 4-OH 50 mg/kg or metformin 25 mg/kg twice daily oral): no significant effect on body weight
blood glucose levels ([2]; by increasing insulin sensitivity (Stumvoll et al. 1995)): lowers blood glucose levels
body weight ([2]; most studies conducted in patients with type 2 diabetes (Hundal et al. 2003)): reduce body weight
weight ([2]; obese individuals without diabetes (Glueck et al. 2001)): induced weight loss

O=C(O)[C@@H]1C[C@H](O)CN1 [compound 75, cis-4-hydroxyproline]
body weight gain induced by the high fat diet [3]: reduced body weight gain induced by the high fat diet

CC(C)(C)C(O)CC(N)C(=O)O (centres unmarked) [compound 62, 2-amino-4-hydroxy-5,5-dimethyl-hexanoic acid]
efficacy on body weight gain relative to compound #14a [3]: greater efficacy than the SRS isomer of 4-OH
body weight gain induced by the high fat diet [3]: reduced body weight gain induced by the high fat diet

COC(=O)[C@H]1C[C@@H](O)CN1 [compound 202]
body weight gain induced by the high fat diet [3]: reduced body weight gain induced by the high fat diet

N[C@H](C(=O)O)[C@@H]1CCCC[C@H]1O [Compound 13e, (S)-2-amino-2-((1S,2R)-2-hydroxycyclohexyl)acetic acid]
body weight gain compared to vehicle treated mice [4]: reduction in body weight gain
dose dependence of the effect on body weight gain ([4]; DIO mice): dose-dependent
epididymal fat pad weight ([4]; DIO mice, grams per 10 grams of body weight): reduction of epididymal fat pad weight

Exendin-4: glucagon-like peptide 1 (GLP-1) receptor agonist
body weight gain ([5]; 4-OH 50 mg/kg twice daily, Exendin-4 0.01 mg/kg (PM), alone or in combination): decrease in body weight gain
weight of epididymal fat ([5]; 4-OH 100 mg/kg, Exendin-4 0.01 mg/kg, combination 4-OH 50 mg/kg + Exendin-4 0.01 mg/kg): not effective
weight of epididymal fat ([5]; Exendin-4 0.05 mg/kg): effective
glycemic levels following OGTT challenge [6]: effective

COC(=O)[C@@H]1C[C@H](O)CN1 [compound 76, cis-4-hydroxyproline methyl ester HCl salt]
body weight gain induced by the high fat diet [3]: reduced body weight gain induced by the high fat diet

Cc1c(C(=O)NN2CCCCC2)nn(-c2ccc(Cl)cc2Cl)c1-c1ccc(Cl)cc1 [Rimonabant, 5-(4-Chlorophenyl)-1-(2,4-dichlorophenyl)-4-methyl-N-(piperidin-1-yl)-1H-pyrazole-3-carboxamide, reference compound]
body weight gain after 21 days (low dosage treatment) ([7]; 4-OH 50 mg/kg twice daily, Rimonabant 0.1 mg/kg once daily, alone or in combination): slight reduction of body weight gain
body weight after dose increase (day 22 to 28) ([7]; 4-OH 100 mg/kg twice daily, Rimonabant 1 mg/kg once daily, alone or in combination (combination compared to each compound separately)): immediately reduced the body weight

C[C@H]([C@@H](C)O)[C@@H](N)C(=O)O [compound 14aa, (2R,3S,4R)-4-Hydroxyisoleucine]
body weight gain induced by the high fat diet [3]: reduced body weight gain induced by the high fat diet

CC1(O)CC(C(=O)O)NCC1O (centres unmarked) [compound 65a, 4-methyl-4,5-dihydroxypipecolic acid]
efficacy on body weight gain relative to compound #14a [3]: greater efficacy than the SRS isomer of 4-OH
body weight gain induced by the high fat diet [3]: reduced body weight gain induced by the high fat diet

CC(=O)N[C@@H]1C(=O)O[C@@H](C)[C@@H]1C [compound 104]
body weight gain induced by the high fat diet [3]: reduced body weight gain induced by the high fat diet
